Data published in patent publication US12570638B2, “Fused imidazole derivatives as AHR antagonists” (Sail Biomedicines, Inc., priority 2020, dated 2026).
In brackets after ≈: the same amount, converted by molar mass. Read-outs that look alike come from different tables or passages of the source.

Legend:
AHR = target: T1, AHR (Homo sapiens, UniProt P35869); assay: DRE-Luciferase Reporter Assay (HepG2 AhR-Lucia reporter cells); type: cell-based; conditions: luciferase activity with AHR activating ligand at EC50, read-out: HepG2-Luc IC50
T1 construct: other cell line with a DRE-luciferase reporter stably transfected; endogenous in cells; host or cells: Human HepG2 liver carcinoma AhR-Lucia reporter cells
T1 sequence (P35869 11-848): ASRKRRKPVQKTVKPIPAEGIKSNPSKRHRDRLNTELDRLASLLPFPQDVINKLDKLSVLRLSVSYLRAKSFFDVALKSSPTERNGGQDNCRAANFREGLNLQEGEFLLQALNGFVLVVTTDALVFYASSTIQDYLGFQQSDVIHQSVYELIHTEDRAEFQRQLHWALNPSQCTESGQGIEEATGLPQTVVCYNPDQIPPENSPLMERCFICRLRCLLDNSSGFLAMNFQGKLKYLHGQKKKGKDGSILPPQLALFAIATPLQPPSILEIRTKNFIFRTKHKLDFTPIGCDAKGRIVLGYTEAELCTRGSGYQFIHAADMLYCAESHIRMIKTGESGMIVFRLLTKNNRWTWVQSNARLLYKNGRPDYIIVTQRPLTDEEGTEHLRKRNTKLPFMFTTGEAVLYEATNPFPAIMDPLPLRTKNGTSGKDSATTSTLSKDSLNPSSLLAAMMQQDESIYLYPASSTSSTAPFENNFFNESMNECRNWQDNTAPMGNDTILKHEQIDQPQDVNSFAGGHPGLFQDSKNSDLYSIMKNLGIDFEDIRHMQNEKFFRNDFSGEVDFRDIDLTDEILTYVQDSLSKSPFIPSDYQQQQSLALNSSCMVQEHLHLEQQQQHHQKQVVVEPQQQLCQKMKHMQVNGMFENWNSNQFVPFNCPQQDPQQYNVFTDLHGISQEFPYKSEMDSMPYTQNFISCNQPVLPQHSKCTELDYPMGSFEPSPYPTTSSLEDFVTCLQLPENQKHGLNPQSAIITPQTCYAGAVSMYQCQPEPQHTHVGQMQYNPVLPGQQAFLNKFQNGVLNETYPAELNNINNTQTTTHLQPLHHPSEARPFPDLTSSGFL
Description: AHR binds to Dioxin Responsive Elements (DRE) upstream of genes that it activates. One measure of AHR activity is activation of a reporter gene, such as luciferase, downstream of one or multiple DRE elements. Luciferase activity will reflect activation and inhibition of AHR in the cells expressing his reporter. 20000 Human HepG2 liver carcinoma—AhR-Lucia reporter cells or Human HT29 colon adenocarcinoma—AhR reporter cells or other cell line with a DRE-luciferase reporter stably transfected were plated in Eagle's Minimal Essential Medium, 10% heat-inactivated FBS, 1× non-essential amino acids Pen-Strep (10,000 U/mL) and Normocin (100 ug/mL) in plates (96-well, 384-well or other plates) and incubated overnight at 37° C. in a CO2 incubator and treated with and without AhR antagonists at a log dilution starting at 100 uM.
After 1 hr that cells were plated an AHR activating ligand, such as TCDD, kynurenine, ITE (2-(1H-indole-3-ylcarbonyl)-4-thiazolecarboxylic methyl ester), VAF347, BNF (beta-naphthoflavone), FICZ (6-formylindolo(3,2-b) carbazole) or other AHR ligands at their specific EC50 concentration, were added to the cells with or without AHR antagonist.
Cells were incubated for 24 or 48 hours or another time point and then, supernatant was analyzed for determination of luciferase activity as a read-out of the AHR activation or inhibition. Luciferase was measured with the commercial kit QUANTI-Luc™ assay solution kit from Invivogen following the manufacturer's instructions.
The level of luciferase with only agonist ligand added was the maximum signal while the luciferase with […] was the minimum signal. IC50 values were determined as the concentration which inhibits half of the luciferase activity.

[1] = Solubility Determination Assay (PBS, LC-MS/MS); type: physicochemical; conditions: aqueous buffer, kinetic from dmso stock
Procedure: The stock solutions of test compounds and control compound progesterone were prepared in DMSO at the concentrations of 10 mM. 15 μL of stock solution (10 mM) of each sample was placed in order into their proper 96-well rack. 485 μL of PBS pH 1.6 and pH 7.4 were added into each vial of the cap-less Solubility Sample plate. The assay was performed in singlet. One stir stick was added to each vial and then the vial was sealed using a molded PTFE/Silicone plug. […] After completion of the 2 hours, plugs were removed and the stir sticks were removed using a big magnet. The samples from the Solubility Sample plate were transferred into the filter plate. Using the Vacuum Manifold, all the samples were filtered. An aliquot of 5 μL was taken from the filtrate followed by addition of 495 μL of a mixture of H2O and acetonitrile containing internal standard (1:1). A certain proportion of ultrapure water was used to dilute the diluent according to the peak shape. The dilution factor was changed according to the solubility values and the LC-MS signal response.
From the 10 mM DMSO STD plate, 6 μL was transferred into the remaining empty plate, and then 194 μL of DMSO were added to that plate to have a STD concentration of 300 μM. From the 300 μM DMSO STD plate, 5 μL were transferred into the remaining empty plate, and then 495 μL of a mixture of H2O and acetonitrile containing internal standard (1:1) were added to that plate to have a final STD concentration of 3 μM. A certain proportion of ultrapure water was used to dilute the diluent according to the peak shape. The concentrations of the standard samples were changed according to the LC-MS signal response.
The plate was placed into the well plate autosampler. The samples were evaluated by LC-MS/MS analysis.
All calculations were carried out using Microsoft Excel.
The filtrate was analyzed and quantified against a standard of known concentration using LC coupled with mass spectral peak identification and quantitation. Solubility values of the test compound and control compound were calculated as follows: […]
Any value of the compounds that was not within the specified limits was rejected and the experiment was repeated.
“+++” indicates a solubility value equal to or greater than 10 μM, “++” indicates a solubility value between 1 and 10 μM, and “+” indicates a solubility value less than 1 μM.

[2] = Liver Microsome Stability Assay, human; type: in vitro ADME; conditions: human liver microsomes, with NADPH, 1 μM compound, read-out: Human liver microsome clearance
Procedure: The master solution was prepared according to Table 6.
Two separate experiments were performed as follows.
With Cofactors (NADPH): 25 μL of 10 mM NADPH was added to the incubations. The final concentrations of microsomes and NADPH were 0.5 mg/mL and 1 mM, respectively. The final concentration of microsomes was 0.5 mg/mL. The mixture was pre-warmed at 37° C. for 10 minutes. The reaction was started with the addition of 2.5 μL of 100 μM control compound or test compound solutions. Verapamil was used as positive control in this study. The final concentration of test compound or control compound was 1 μM. The incubation solution was incubated in water batch at 37° C. Aliquots of 25 μL were taken from the reaction solution at 0.5, 5, 15, 30 and 60 minutes. The reaction was stopped by the addition of 5 volumes of cold acetonitrile with IS (200 nM caffeine and 100 nM tolbutamide). Samples were centrifuged at 3, 220 g for 40 minutes. Aliquot of 100 μL of the supernatant was mixed with 100 μL of ultra-pure H2O and then used for LC-MS/MS analysis.
Data Analysis: All calculations were carried out using Microsoft Excel. Peak areas were determined from extracted ion chromatograms. The slope value, k, was determined by linear regression of the natural logarithm of the remaining percentage of the parent drug vs. incubation time curve.
The in vitro half-life (in vitro t1/2) was determined from the slope value: in vitro t1/2=−([…]/k)
Conversion of the in vitro t1/2 (min) into the in vitro intrinsic clearance (in vitro CLint, in μL/min/mg protein) was done using the following equation (mean of duplicate determinations):
The calculations of Scaled-up CLint (mL/min/kg), Predicted CLH (mL/min/kg) and EH were done using the following equation: Scaled-up CLint=(0.693/t1/2)×(1/(microsomal protein concentration(0.5 mg/mL)))×Scaling Factors; Predicted CLH=(QH×Scaled-up CLint×fub)/(QH+Scaled-up CLint×fub); EH=Predicted CLH/QH • where QH is the hepatic blood flow (mL/min/kg) (Table 7), • fub is the fraction of unbound drug in plasma which is assumed to be 1. […]

[3] = PBS pH 1.6, 25° C., read-out: Aq. Solubility at pH = 1.6
[4] = PBS pH 7.4, 25° C., read-out: Aq. Solubility at pH = 7.4

IC50 (AHR) [nM]	solubility at 2 h [1, 3] [µM]	solubility at 2 h [1, 4] [µM]	CLint scaled at 1 μM [2] [mL/min/kg]	SMILES
100 to 500	–	–	–	Cc1ccccc1-c1nc2ccc(NC(=O)c3ncnn3C)cc2[nH]1 [G, 1-methyl-N-(2-(o-tolyl)-1H-benzo[d]imidazol-6-yl)-1H-1,2,4-triazole-5-carboxamide]
100 to 500	–	–	–	Cc1ccccc1-c1nc2ccc(NC(=O)c3ccnn3C)cc2[nH]1 [B, 1-methyl-N-(2-(o-tolyl)-1H-benzo[d]imidazol-6-yl)-1H-pyrazole-5-carboxamide]
< 100	> 10	1 to 10 (≈ 0.368 to 3.68 µg/mL)	–	Cn1ncnc1C(=O)Nc1ccc2nc(-c3ccccc3C(F)F)[nH]c2c1 [D, N-(2-(2-(difluoromethyl)phenyl)-1H-benzo[d]imidazol-6-yl)-1-methyl-1H-1,2,4-triazole-5-carboxamide]
100 to 500	> 10	1 to 10 (≈ 0.367 to 3.67 µg/mL)	< 10	Cn1nccc1C(=O)Nc1ccc2nc(-c3ccccc3C(F)F)[nH]c2c1 [Compound C, N-(2-(2-(difluoromethyl)phenyl)-1H-benzo[d]imidazol-6-yl)-1-methyl-1H-pyrazole-5-carboxamide]
